Assay results published in patent publication US20100203156A1, “XENON AS A TREATMENT FOR HEMOGLOBINOPATHY” (priority 2009, published 2010).

Key:
HbS = HbS (Homo sapiens, UniProt P68871+P69905, E7V); conditions: cited from earlier work
hemoglobin [1] = target: T1, hemoglobin (Homo sapiens, UniProt P68871+P69905); experiment: association rates of gases for hemoglobin; format: binding
[2] = tested on: spinal dorsal horn neurons; conditions: cited from earlier work; for nociception depending on age: various ages / the young
[3] = inhaled xenon; cited from earlier work
[4] = with oxygen, human adults; cited from earlier work
[5] = cited from earlier work
hemoglobin [6] = target: T1, hemoglobin; conditions: cited from earlier work

SMILES: C [methane]
- effect on HbS aggregation (HbS): prevent and reverse HbS aggregation

SMILES: [Xe] [xenon]
- xenon association rate for hemoglobin relative to CO (hemoglobin [1]; versus CO): 10 times faster
- xenon association rate for hemoglobin relative to O2 (hemoglobin [1]; versus O2): 1-2 times faster
- nociceptive responsiveness of spinal dorsal horn neurons ([2]; animal studies): directly inhibited
- nociception depending on age [2]: reduce nociception at various ages
- inhaled concentration at which nausea and vomiting has been observed [3]: > 30%
- 1 MAC, inhaled fractional concentration [4]: 0.63-0.73
- analgesia to cold pain ([5]; human, in vivo): not to cold pain
- analgesia to ischemic, electrical, mechanical, and heat stimulation ([5]; human, in vivo): produced analgesia
- analgesic potency compared with nitrous oxide ([5]; human, in vivo): comparable or superior to nitrous oxide
- response to experimentally induced, standardized forms of pain ([5]; inhaled dose of ~20%, healthy volunteers): significantly decrease the response
- xenon in blood carried by hemoglobin (hemoglobin [6]; during xenon inhalation, estimated): 45%
- amount of xenon bound by reduced and oxyhemoglobin (hemoglobin [6]; reduced versus oxyhemoglobin): approximately the same

SMILES: CC [ethane]
- effect on HbS aggregation (HbS): prevent and reverse HbS aggregation

SMILES: [N-]=[N+]=O [nitrous oxide]
- nociception depending on age [2]: ineffective in the young

SMILES: CCC [propane]
- effect on HbS aggregation (HbS): prevent and reverse HbS aggregation
